Laboratory results taken from PubChem BioAssay AID2060906 (Molecular Pharmacology Branch, DTP, NCI, 2025).

System: 485176-168-R4-J1-PDC complex spheroid growth
Assay: Anticancer human tumor 485176-168-R4-J1-PDC patient-derived pancreatic adenocarcinoma cell line growth inhibition [RAS]
Conditions: for viability, T/C: stronger effect = lower value
Method in brief: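 Agents were tested in combination matrices in half-log decrements from a top concentration at or near clinical Cmax (10 microM if undetermined). Targets were multi-cell spheroids of tumour lines plus HUVEC and MSC stromal cells.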

[1] = curve of first compound, second compound 0.000949 µM
[2] = curve of first compound, second compound 0.003 µM
[3] = curve of first compound, second compound 0.00949 µM
[4] = curve of first compound, second compound 0.03 µM
[5] = curve of first compound, second compound 0.0949 µM
[6] = curve of first compound, second compound 0.3 µM
[7] = second compound 0.000949 µM, first compound 0.0316 µM
[8] = second compound 0.000949 µM, first compound 0.1 µM
[9] = second compound 0.000949 µM, first compound 0.316 µM
[10] = second compound 0.000949 µM, first compound 1 µM
[11] = second compound 0.000949 µM, first compound 3.16 µM
[12] = second compound 0.000949 µM, first compound 10 µM
[13] = second compound 0.003 µM, first compound 0.0316 µM
[14] = second compound 0.003 µM, first compound 0.1 µM
[15] = second compound 0.003 µM, first compound 0.316 µM
[16] = second compound 0.003 µM, first compound 1 µM
[17] = second compound 0.003 µM, first compound 3.16 µM
[18] = second compound 0.003 µM, first compound 10 µM
[19] = second compound 0.00949 µM, first compound 0.0316 µM
[20] = second compound 0.00949 µM, first compound 0.1 µM
[21] = second compound 0.00949 µM, first compound 0.316 µM
[22] = second compound 0.00949 µM, first compound 1 µM
[23] = second compound 0.00949 µM, first compound 3.16 µM
[24] = second compound 0.00949 µM, first compound 10 µM
[25] = second compound 0.03 µM, first compound 0.0316 µM
[26] = second compound 0.03 µM, first compound 0.1 µM
[27] = second compound 0.03 µM, first compound 0.316 µM
[28] = second compound 0.03 µM, first compound 1 µM
[29] = second compound 0.03 µM, first compound 3.16 µM
[30] = second compound 0.03 µM, first compound 10 µM
[31] = second compound 0.0949 µM, first compound 0.0316 µM
[32] = second compound 0.0949 µM, first compound 0.1 µM
[33] = second compound 0.0949 µM, first compound 0.316 µM
[34] = second compound 0.0949 µM, first compound 1 µM
[35] = second compound 0.0949 µM, first compound 3.16 µM
[36] = second compound 0.0949 µM, first compound 10 µM
[37] = second compound 0.3 µM, first compound 0.0316 µM
[38] = second compound 0.3 µM, first compound 0.1 µM
[39] = second compound 0.3 µM, first compound 0.316 µM
[40] = second compound 0.3 µM, first compound 1 µM
[41] = second compound 0.3 µM, first compound 3.16 µM
[42] = second compound 0.3 µM, first compound 10 µM
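Note: spheroids exposed to compounds for seven days before readout.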
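Throughout, for viability, T/C: luminescence viability expressed relative to DMSO vehicle wells set as 100%.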

Work on `Cc1nc(N2CCC3(CC2)COC(C)C3N)c(CO)nc1Sc1ccnc(N)c1Cl` (stereo not drawn) + CCn1c(-c2cc(N3CCN(C)CC3)cnc2C(C)OC)c2c3cc(ccc31)-c1csc(n1)CC(NC(=O)C1CC1C)C(=O)N1CCCC(N1)C(=O)OCC(C)(C)C2 yielded an IC50 [1] greater than 10000 nM, an IC50 [2] greater than 10000 nM and an IC50 [3] greater than 10000 nM. The IC50 [4] was greater than 10000 nM, the IC50 [5] was greater than 10000 nM and the IC50 [6] was greater than 10000 nM. The viability, T/C [7] was 90.6%, the viability, T/C [8] was 83.5% and the viability, T/C [9] was 84.1%. It also gave a viability, T/C [10] of 72.8%, a viability, T/C [11] of 77.5% and a viability, T/C [12] of 75.7%. For the same compound, the viability, T/C [13] was 82.7%, the viability, T/C [14] was 68.7% and the viability, T/C [15] was 87.8%. It also gave a viability, T/C [16] of 83.6%, a viability, T/C [17] of 83.8% and a viability, T/C [18] of 82.8%. For the same compound, the viability, T/C [19] was 94.3%, the viability, T/C [20] was 80.1% and the viability, T/C [21] was 80.4%. It also gave a viability, T/C [22] of 78.5%, a viability, T/C [23] of 77.2% and a viability, T/C [24] of 68%. It also gave a viability, T/C [25] of 77.1%, a viability, T/C [26] of 74.6% and a viability, T/C [27] of 94.7%. It also gave a viability, T/C [28] of 82.5%, a viability, T/C [29] of 90% and a viability, T/C [30] of 63.4%. For the same compound, the viability, T/C [31] was 85.2%, the viability, T/C [32] was 93.2% and the viability, T/C [33] was 59.9%. It also gave a viability, T/C [34] of 75%, a viability, T/C [35] of 80.7% and a viability, T/C [36] of 70.4%. It also gave a viability, T/C [37] of 78.8%, a viability, T/C [38] of 72.9% and a viability, T/C [39] of 63.2%. It also gave a viability, T/C [40] of 56.9%, a viability, T/C [41] of 76.5% and a viability, T/C [42] of 65.3%.

`CC(=O)OC12COC1CC(O)C1(C)C(=O)C(O)C3=C(C)C(OC(=O)C(O)C(NC(=O)OC(C)(C)C)c4ccccc4)CC(O)(C(OC(=O)c4ccccc4)C21)C3(C)C` (stereo not drawn) + CCn1c(-c2cc(N3CCN(C)CC3)cnc2C(C)OC)c2c3cc(ccc31)-c1csc(n1)CC(NC(=O)C1CC1C)C(=O)N1CCCC(N1)C(=O)OCC(C)(C)C2 was tested, and the IC50 [1] was less than 31.6 nM, the IC50 [2] was less than 31.6 nM and the IC50 [3] was less than 31.6 nM. For the same compound, the IC50 [4] was less than 31.6 nM, the IC50 [5] was less than 31.6 nM and the IC50 [6] was less than 31.6 nM. It also gave a viability, T/C [7] of 16.7%, a viability, T/C [8] of 15.2% and a viability, T/C [9] of 13.1%. For the same compound, the viability, T/C [10] was 13.9%, the viability, T/C [11] was 15.6% and the viability, T/C [12] was 19.6%. For the same compound, the viability, T/C [13] was 14.1%, the viability, T/C [14] was 13.2% and the viability, T/C [15] was 10.9%. It also gave a viability, T/C [16] of 15.5%, a viability, T/C [17] of 13.1% and a viability, T/C [18] of 17.9%. For the same compound, the viability, T/C [19] was 17.2%, the viability, T/C [20] was 12.8% and the viability, T/C [21] was 12.7%. The viability, T/C [22] was 12.8%, the viability, T/C [23] was 13.2% and the viability, T/C [24] was 20.1%. It also gave a viability, T/C [25] of 12.3%, a viability, T/C [26] of 13.4% and a viability, T/C [27] of 13.8%. It also gave a viability, T/C [28] of 10.8%, a viability, T/C [29] of 16.5% and a viability, T/C [30] of 21%. It also gave a viability, T/C [31] of 14.2%, a viability, T/C [32] of 11.9% and a viability, T/C [33] of 11.8%. It also gave a viability, T/C [34] of 9.97%, a viability, T/C [35] of 14.9% and a viability, T/C [36] of 15.9%. The viability, T/C [37] was 15.5%, the viability, T/C [38] was 13.1% and the viability, T/C [39] was 9.69%. The viability, T/C [40] was 12.8%, the viability, T/C [41] was 15.8% and the viability, T/C [42] was 14.7%.

For `O=C(c1ccc(F)c(F)c1Nc1ccc(I)cc1F)N1CC(O)([C@@H]2CCCCN2)C1` + CCn1c(-c2cc(N3CCN(C)CC3)cnc2C(C)OC)c2c3cc(ccc31)-c1csc(n1)CC(NC(=O)C1CC1C)C(=O)N1CCCC(N1)C(=O)OCC(C)(C)C2, the IC50 [1] was 116 nM, the IC50 [2] was 90.2 nM and the IC50 [3] was 33 nM. It also gave an IC50 [4] of 22.9 nM, an IC50 [5] of 14.5 nM and an IC50 [6] of less than 3.16 nM. It also gave a viability, T/C (second compound 0.000949 µM, first compound 0.00316 µM) of 87.1%, a viability, T/C (second compound 0.000949 µM, first compound 0.01 µM) of 62.7% and a viability, T/C [7] of 65.1%. It also gave a viability, T/C [8] of 51%, a viability, T/C [9] of 43.8% and a viability, T/C [10] of 34.1%. The viability, T/C (second compound 0.003 µM, first compound 0.00316 µM) was 85.9%, the viability, T/C (second compound 0.003 µM, first compound 0.01 µM) was 75.5% and the viability, T/C [13] was 63.8%. It also gave a viability, T/C [14] of 48.5%, a viability, T/C [15] of 38.8% and a viability, T/C [16] of 35.2%. The viability, T/C (second compound 0.00949 µM, first compound 0.00316 µM) was 75.3%, the viability, T/C (second compound 0.00949 µM, first compound 0.01 µM) was 56.6% and the viability, T/C [19] was 51.7%. For the same compound, the viability, T/C [20] was 45.9%, the viability, T/C [21] was 36.1% and the viability, T/C [22] was 35%. It also gave a viability, T/C (second compound 0.03 µM, first compound 0.00316 µM) of 62.5%, a viability, T/C (second compound 0.03 µM, first compound 0.01 µM) of 59.3% and a viability, T/C [25] of 45.2%. For the same compound, the viability, T/C [26] was 38.8%, the viability, T/C [27] was 31.3% and the viability, T/C [28] was 31.4%. For the same compound, the viability, T/C (second compound 0.0949 µM, first compound 0.00316 µM) was 65.4%, the viability, T/C (second compound 0.0949 µM, first compound 0.01 µM) was 56.9% and the viability, T/C [31] was 36.5%. It also gave a viability, T/C [32] of 37.2%, a viability, T/C [33] of 30.9% and a viability, T/C [34] of 25.7%. The viability, T/C (second compound 0.3 µM, first compound 0.00316 µM) was 48.6%, the viability, T/C (second compound 0.3 µM, first compound 0.01 µM) was 44.4% and the viability, T/C [37] was 36.6%. For the same compound, the viability, T/C [38] was 28.6%, the viability, T/C [39] was 28.8% and the viability, T/C [40] was 25.9%.

`CC(Nc1ccc2c(c1)OCCn1cc(N3C(=O)OCC3C(F)F)nc1-2)C(N)=O` (stereo not drawn) was tested, and the viability, T/C (compound 0.0316 µM) was 97.9% [middle of 4 runs], the viability, T/C (compound 0.1 µM) was 89.2% [middle of 4 runs] and the viability, T/C (compound 0.316 µM) was 84.7% [middle of 4 runs]. The viability, T/C (compound 1 µM) was 75.3% [middle of 4 runs], the viability, T/C (compound 3.16 µM) was 69.1% [middle of 4 runs] and the viability, T/C (compound 10 µM) was 55.5% [middle of 4 runs]. The IC50 (curve of compound) was greater than 10000 nM.
